One assay deals with SW48 cells. Kind of assay: Proliferation assay SW48 (CellTiterGlo). The assay is classed as cell-based. The conditions noted are these: Homo sapiens, SW48, 96 h, SW48 colon carcinoma cells, 96 hours, CellTiterGlo; geometric mean of at least 2; read-out: Proliferation Assay SW48 GI50. The method, boiled down:
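Read-out is CellTiterGlo luminescence after 96 hours of compound exposure, with % growth calculated against day-0 and vehicle-treated ATP levels. SW48 seeded at 2,000 cells/well, dosed next day with eight 3-fold serial dilutions, 0.1% DMSO. GI50 reported as geometric mean, at least 2 replicates.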

For a further assay, the system named is DLD1-WRN-KO cells. Kind of assay: Proliferation assay DLD1-WRN-KO (CellTiterGlo, off-target effects). The conditions noted are these: 96 hours, geometric mean of at least 2. The class given is cell-based. A digest of the protocol:
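DLD1 cells with CRISPR knockout of WRN were exposed overnight-seeded to eight 3-fold compound dilutions (0.1% DMSO) for 96 h at 37 °C. Viability was read as ATP by CellTiterGlo luminescence against a day-0 plate, giving GI50 and residual viability at top concentration.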
(In general: In ATP-based viability assays light output follows the ATP content of the culture.)

For assay [1], the target named is T1, WRN helicase (aa N517-P1238) (Homo sapiens, UniProt Q14191).
T1 construct: The core helicase motif of the WRN protein (aa N517-P1238) was produced for this assay; His (N); ZZ (N); 3C protease cleavage site (N); made in house; host or cells: Sf21 insect cells (baculovirus; virus and BIICs made in SF9)
Kind of assay: WRN ATPase assay (DNA dependent ATP hydrolysis, ADP-Glo). The class given is biochemical. The conditions noted are these: 3 hours pre-incubation, 300 micromolar ATP, FLAP26 DNA; geometric mean of at least 2. A digest of the protocol:
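DNA-dependent ATP hydrolysis detected as ADP by ADP-Glo luminescence, using 300 μM ATP, 0.2 nM FLAP26 substrate and 10 nM WRN aa N517-P1238 (Tris pH 7.5 buffer, 2 mM MgCl2, 50 mM NaCl). IC50s fitted from normalized duplicate half-log dilutions; reported as geometric means of at least 2 replicates.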
In general terms: ADP-Glo turns the ADP formed in a reaction into a luminescent signal.

This note sets out measurements from patent publication US20260250289A1, “BICYCLIC HETEROCYCLES AND THEIR USE AS WRN INHIBITORS” (Novartis AG, priority 2022, published 2026).

T1 sequence (Q14191 517-1238): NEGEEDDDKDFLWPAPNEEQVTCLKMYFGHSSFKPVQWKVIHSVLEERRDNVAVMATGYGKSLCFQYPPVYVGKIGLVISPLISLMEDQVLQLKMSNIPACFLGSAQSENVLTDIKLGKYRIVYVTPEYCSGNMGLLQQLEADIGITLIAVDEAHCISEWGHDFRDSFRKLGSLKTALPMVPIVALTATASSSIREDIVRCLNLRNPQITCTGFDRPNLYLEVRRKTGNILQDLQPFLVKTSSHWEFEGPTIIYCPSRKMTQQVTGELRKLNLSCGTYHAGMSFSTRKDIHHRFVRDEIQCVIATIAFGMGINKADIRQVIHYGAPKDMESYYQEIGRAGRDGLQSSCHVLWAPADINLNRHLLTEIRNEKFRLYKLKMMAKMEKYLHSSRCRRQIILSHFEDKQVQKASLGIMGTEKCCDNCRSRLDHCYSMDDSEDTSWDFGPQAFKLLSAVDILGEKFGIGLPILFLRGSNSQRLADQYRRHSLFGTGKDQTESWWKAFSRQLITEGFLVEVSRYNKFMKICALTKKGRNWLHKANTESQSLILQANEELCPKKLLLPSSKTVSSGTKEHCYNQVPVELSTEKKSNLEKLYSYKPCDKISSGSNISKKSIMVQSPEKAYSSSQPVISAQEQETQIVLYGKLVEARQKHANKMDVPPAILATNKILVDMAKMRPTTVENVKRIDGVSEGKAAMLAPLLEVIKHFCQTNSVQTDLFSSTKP

`CC(=O)N1CCN(c2c(C)n(CC(=O)Nc3ccc(C(F)(F)F)c(F)c3C)c3nc(C4=CCOCC4)nn3c2=O)CC1` [Example 84, 2-(6-(4-acetylpiperazin-1-yl)-2-(3,6-dihydro-2H-pyran-4-yl)-5-methyl-7-oxo-[1,2,4]triazolo[1,5-a]pyrimidin-4(7H)-yl)-N-(3-fluoro-2-methyl-4-(trifluoromethyl)phenyl)acetamide]: the values for the GI50 with SW48 cells and with DLD1-WRN-KO cells were 1000 nM and over 10000 nM, respectively. The IC50 (as a rule, the concentration that inhibits the measured activity by half) in assay [1] amounted to 300 nM.

As for `CC(=O)N1CCN(c2c(C)n(CC(=O)Nc3ccc(C(F)(F)F)cc3F)c3nc(C4=CCOCC4)nn3c2=O)CC1` [Example 85, 2-(6-(4-acetylpiperazin-1-yl)-2-(3,6-dihydro-2H-pyran-4-yl)-5-methyl-7-oxo-[1,2,4]triazolo[1,5-a]pyrimidin-4(7H)-yl)-N-(2-fluoro-4-(trifluoromethyl)phenyl)acetamide], the GI50 was 4000 nM in the assay with SW48 cells and over 10000 nM with DLD1-WRN-KO cells. Moreover, the IC50 in assay [1] worked out at 500 nM.

In the case of `CC(=O)N1CCN(c2c(C)n(CC(=O)Nc3cc(Cl)c(C(F)(F)F)nc3C)c3nc(C4=CCOCC4)nn3c2=O)CC1` [Example 87, 2-(6-(4-acetylpiperazin-1-yl)-2-(3,6-dihydro-2H-pyran-4-yl)-5-methyl-7-oxo-[1,2,4]triazolo[1,5-a]pyrimidin-4(7H)-yl)-N-(5-chloro-2-methyl-6-(trifluoromethyl)pyridin-3-yl)acetamide], the results for the GI50 in the assay with SW48 cells and in the assay with DLD1-WRN-KO cells were 4000 nM and over 10000 nM, respectively. Also, it took 500 nM to reach half-maximal inhibition in assay [1] (IC50).

`CCc1c(N2CCN(C(C)=O)CC2)c(=O)n2nc(C3=CCOCC3)nc2n1CC(=O)Nc1ccc(C(F)(F)F)cc1F` [Example 88, 2-(6-(4-acetylpiperazin-1-yl)-2-(3,6-dihydro-2H-pyran-4-yl)-5-ethyl-7-oxo-[1,2,4]triazolo[1,5-a]pyrimidin-4(7H)-yl)-N-(2-fluoro-4-(trifluoromethyl)phenyl)acetamide]: the GI50 in the assay on SW48 cells is 3000 nM; with DLD1-WRN-KO cells, over 10000 nM. In assay [1], this molecule displayed a half-inhibitory concentration (IC50) of 500 nM.

Regarding `CC(=O)N1CCN(c2c(C)n(CC(=O)Nc3cc(C)c(C(F)(F)F)cc3Cl)c3nc(C4=CCOCC4)nn3c2=O)CC1` [Example 89, 2-(6-(4-acetylpiperazin-1-yl)-2-(3,6-dihydro-2H-pyran-4-yl)-5-methyl-7-oxo-[1,2,4]triazolo[1,5-a]pyrimidin-4(7H)-yl)-N-(2-chloro-5-methyl-4-(trifluoromethyl)phenyl)acetamide], the GI50 with SW48 cells was 3000 nM; in the assay on DLD1-WRN-KO cells, over 10000 nM. For the same molecule, half-maximal inhibition in assay [1] (IC50) required 600 nM.

As for `CC(=O)N1CCN(c2c(C)n(CC(=O)Nc3ccc(C(F)(F)F)c(F)c3)c3nc(C4=CCOCC4)nn3c2=O)CC1` [Example 90, 2-(6-(4-acetylpiperazin-1-yl)-2-(3,6-dihydro-2H-pyran-4-yl)-5-methyl-7-oxo-[1,2,4]triazolo[1,5-a]pyrimidin-4(7H)-yl)-N-(3-fluoro-4-(trifluoromethyl)phenyl)acetamide], the GI50 in the assay with SW48 cells is 4000 nM; in the assay on DLD1-WRN-KO cells, over 10000 nM. Half-maximal inhibition in assay [1] (IC50) was put at 600 nM.

In the case of `CC(=O)N1CCN(c2c(C)n(CC(=O)Nc3cc(F)c(C(F)(F)F)cc3Cl)c3nc(C4=CCOCC4)nn3c2=O)CC1` [Example 91, 2-(6-(4-acetylpiperazin-1-yl)-2-(3,6-dihydro-2H-pyran-4-yl)-5-methyl-7-oxo-[1,2,4]triazolo[1,5-a]pyrimidin-4(7H)-yl)-N-(2-chloro-5-fluoro-4-(trifluoromethyl)phenyl)acetamide], the GI50 in the assay on SW48 cells is 3000 nM; in the assay with DLD1-WRN-KO cells, over 10000 nM. This molecule also registered a concentration for half-maximal inhibition (IC50) in assay [1] of 700 nM.

As for `CCc1ccc(NC(=O)Cn2c(C)c(N3CCN(C(C)=O)CC3)c(=O)n3nc(C4=CCOCC4)nc23)cc1F` [Example 92, 2-(6-(4-acetylpiperazin-1-yl)-2-(3,6-dihydro-2H-pyran-4-yl)-5-methyl-7-oxo-[1,2,4]triazolo[1,5-a]pyrimidin-4(7H)-yl)-N-(4-ethyl-3-fluorophenyl)acetamide], the GI50 in the assay with SW48 cells is 4000 nM; in the assay on DLD1-WRN-KO cells, over 10000 nM. The molecule also showed an IC50 in assay [1] of 700 nM.
